In ChEMBL document CHEMBL1150204, “Cystodytins D-I, new cytotoxic tetracyclic aromatic alkaloids from the Okinawan marine tunicate Cystodytes dellechiajei” (J Nat Prod, 1991) one finds IC50 data, which are given here for 6 compounds.

Each structure is given as a SMILES string. Converted amounts (≈) assume the structure as drawn.

Usually IC50 stands for the concentration needed to halve the response being measured. Read a high IC50 as weaker potency in that assay.

Assay [1] concerns L1210. The assay can be described thus: Cytotoxicity against mouse L1210 cells. The format is functional, cell-based.
Assay [2] relates to KB. As to the kind of experiment: Cytotoxicity against human KB cells. The format is functional, cell-based.

Regarding `CC(C)=CC(=O)NCC(O)C1=CC(=O)c2nccc3c2c1nc1ccccc13` (configuration not stated) [CYSTODYTIN D], the IC50 in assay [1] was 1.1 µg/mL (≈ 2.95 µM); in assay [2] it was 1.4 µg/mL (≈ 3.75 µM).
For `C/C=C(\C)C(=O)NCC(O)C1=CC(=O)c2nccc3c2c1nc1ccccc13` (configuration not stated) [CYSTODYTIN E] the same measures were 1.1 µg/mL (≈ 2.95 µM) and 1.4 µg/mL (≈ 3.75 µM).
For the compound `COC(CNC(=O)C=C(C)C)C1=CC(=O)c2nccc3c2c1nc1ccccc13` (configuration not stated) [CYSTODYTIN F], the half-inhibitory concentration (IC50) in assay [1] is 0.068 µg/mL (≈ 0.176 µM); in assay [2], 0.078 µg/mL (≈ 0.201 µM).
For `C/C=C(\C)C(=O)NCC(OC)C1=CC(=O)c2nccc3c2c1nc1ccccc13` (configuration not stated) [CYSTODYTIN G] the same measures were 0.068 µg/mL (≈ 0.176 µM) and 0.078 µg/mL (≈ 0.201 µM).
On to `CCCCCCCC/C=C/CCCCCCCC(=O)OC(CNC(=O)C=C(C)C)C1=CC(=O)c2nccc3c2c1nc1ccccc13` (configuration not stated) [CYSTODYTIN H], for which the 50% inhibitory concentration (IC50) was determined as 0.08 µg/mL (≈ 0.125 µM) in assay [1] and 0.092 µg/mL (≈ 0.144 µM) in assay [2].
For `C/C=C(\C)C(=O)NCC(OC(=O)CCCCCCC/C=C/CCCCCCCC)C1=CC(=O)c2nccc3c2c1nc1ccccc13` (configuration not stated) [CYSTODYTIN I], the figures for the half-maximal inhibitory concentration (IC50) in assay [1] and in assay [2] were 0.08 µg/mL (≈ 0.125 µM) and 0.092 µg/mL (≈ 0.144 µM), respectively.
